Measured values published in paper PMC10269895 (Microbiology Spectrum, 2023).

Legend:
[1] = Hepatic in vitro CLint in primary plated hepatocytes; type: in vitro ADME, human
Protocol: For hepatic in vitro CLint studies, primary cultures of cryopreserved human or animal species hepatocytes were seeded at a density of 200,000 cells per well and cultured overnight in collagen-coated 48-well plates in modified Ham’s F-12/William’s E medium. Disappearance kinetics of 5 μM GE81112A were sampled over a 24-h period. Dextromethorphan, midazolam, phenacetin, and tolbutamide (5 μM each) were used as reference compounds. Acetonitrile was used to terminate the incubation, and samples were centrifuged at 2,000 × g for 10 min after the addition of an appropriate internal standard. Supernatants were separated by LC using an AERIS peptide XB-C18 column (3.6 μm, 50 by 2.1 mm; Phenomenex, Aschaffenburg, Germany) with the following gradient of buffer A (water) and buffer B (acetonitrile): 0 to 5 min, 95% buffer A; 20 to 25 min, 5% buffer A. Both solvents were supplemented with 0.1% formic acid. The remaining parent peptide was quantified by LC-MS/MS using a Q Exactive hybrid quadrupole-Orbitrap device (Thermo Fisher Scientific). In vitro hepatic CLint was calculated as dose/area under the concentration-time curve from 0 to 24 h (AUC0–24), where dose is the concentration of GE81112A determined in the time zero sample and classified using reference compounds for low, moderate, or high CLint.

[2] = test system: G-protein-coupled receptors, ion channels, NET and DAT panel; experiment: Pharmacological off-target profiling: in vitro binding assays (CEREP); design: species or system human unless stated (rat); details: 0.01 mM
Excerpt: FIG 3 In vitro binding assays. Inhibitory effects of GE81112A were investigated for G-protein-coupled receptors for adenosine (A1 and A2A), […] (α1A, α2A, β1, and β2), cannabinoids (CB1 and CB2), dopamine (D1 and D2S), histamine (H1 and H2), acetylcholine (M1, M2, and M3), opioids (μ-MOP), and serotonin (5-HT1A, 5-HT2A, and 5-HT2B), the ion channels Gly (rat), nAChR (α4β2), nAChR (muscle type), PCP (rat), Cav1.2 (rat), Kv (rat), SKCa (rat), and GABACl (rat), NET (GenBank accession number P23975), and DAT (GenBank accession number Q01959).

Question: With `NC(=O)OC[C@@H](O)C[C@H](NC(=O)[C@H]1NCCC[C@H]1O)C(=O)N[C@@H](Cc1c[nH]cn1)C(=O)N[C@H](C(=O)O)[C@H](O)c1cnc(Cl)[nH]1` [GE81112A] as the molecule, how does the “Intrinsic clearance (CLint)” value ([1]; 5 μM, classified as low) read?
Answer: The value was 0.01 mL/(h × 1 million cells).

Question: And the “Directly glucuronic acid-conjugated metabolites” value ([1]; human primary plated hepatocytes)?
Answer: The value was “not observed”.

Question: What about the “Off-target inhibitory effects, binding assays” value [2] of the same molecule?
Answer: Its value is “no critical inhibiting effect”.
